According to patent US20250002450A1, “CATIONIC STEROID COMPOUNDS, METHOD OF OBTAINING THEREOF, FORMULATIONS COMPRISING THEREOF AND THEIR USES” (UNIVERSIDADE DO PORTO, priority 2021, published 2025):
In brackets after ≈: the same amount, converted by molar mass.

What was measured:
[1] = test system: E. coli 2252 (COL-resistant); experiment: Antibacterial MIC/MBC (broth microdilution); type: cell-based, Escherichia coli; details: E. coli 2252 (COL-resistant)
Excerpt: (§1) Twelve reference bacterial strains and nine MDR clinically relevant bacterial strains were used in this study. Gram-negative bacteria comprised reference strains E. coli ATCC 25922, K. pneumoniae ATCC 13883, Salmonella enterica serovar Typhimurium CECT 443, P. aeruginosa ATCC 27853, A. baumannii ATCC 19606, C. jejuni ATCC 33560 (ATCC—American Type Culture Collection; CECT—Colección Espanola de Cultivos Tipo); clinical isolates E. coli SA/2, an extended-spectrum β-lactamase (ESBL)-producing strain and P. aeruginosa 33b, a pan-drug-resistant isolate; and animal isolates C. jejuni P5/4, a ciprofloxacin-resistant strain, C. jejuni 4432, C. jejuni 4433, C. jejuni 4448, and E. coli 2252, a COL-resistant strain [42]. Gram-positive strains included S. aureus ATCC 29213, E. faecalis ATCC 29212, S. pyogenes ATCC 19615, and environmental isolates methicillin-resistant S. aureus (MRSA) 66/1 [43], and VAN-resistant enterococci (VRE) E. faecalis B3/101 [44]. Gram-negative fish pathogens Yersinia ruckeri ATCC 29473, Listonella anguillarum ATCC 1924, and Tenacibaculum maritimum ATCC 43397 were also included.
(§2) Strains were kept in Trypto-Casein Soy agar (TSA—Biokar Diagnostics, Allone, Beauvais, France) slants and, before each assay, were sub-cultured in Mueller-Hinton agar (MHA—Biokar Diagnostics, Allone, Beauvais, France). Y. ruckeri ATCC 29473 and L. anguillarum ATCC 1924 were kept in Nutrient Agar (Condalab, Madrid, Spain) and T. maritimum ATCC 43397 was kept in TMM agar (Condalab, Madrid, Spain), and were sub-cultured in the respective culture media before each assay. For S. pyogenes ATCC 19615, CAMHB was supplemented with 3.75% lysed horse blood (LBH—Oxoid, Basingstoke, England), whereas for C. jejuni it was supplemented with 2.5% LHB. Colony-forming unit counts of the inoculum were conducted to determine the initial inoculum size (which should be approximately 5×10^5 CFU/mL). Sterility and growth controls were included in each assay. The 96-well U-shaped untreated polystyrene microtiter plates were incubated for 20 h at 37 degrees C. (42 degrees C. for C. jejuni, in a microaerophilic atmosphere) and the minimal inhibitory concentration (MIC) was determined as the lowest concentration of compound that prevented visible growth. The minimal bactericidal concentration (MBC) was determined by spreading 100 μL of the content of the wells with no visible growth on MH plates. The MBC was determined as the lowest concentration of compound that killed 99.9% of the initial inoculum after overnight incubation at 37 degrees C. Two independent assays were performed for reference and MDR strains.
(§3) An initial screening of the antibacterial activity of the compounds was performed by the Kirby-Bauer disk diffusion method, as recommended by the Clinical and Laboratory Standards Institute (CLSI). Briefly, sterile 6 mm blank paper disks (Oxoid, Basingstoke, England) impregnated with 15 μg of each compound were placed on inoculated MH agar plates. A blank disk with dimethylsulfoxide (DMSO) was used as a negative control. MH inoculated plates were incubated for 18-20 h at 37 degrees C. At the end of incubation, the inhibition halos where measured. The MIC was used to determine the antibacterial activity of each compound, in accordance with the recommendations of the CLSI. Two-fold serial dilutions of the compounds were prepared in Mueller-Hinton Broth 2 (MHB2—Sigma-Aldrich, St. Louis, MO, USA) within the concentration range of 0.062-64 μg/mL. CTX ranging between 0.031-16 μg/mL was used as a control. Sterility and growth controls were included in each assay. Purity checks and colony counts of the inoculum suspensions were also performed in order to ensure that the final inoculum density closely approximates the intended number (5×10^5 CFU/mL). The MIC was determined as the lowest concentration of compound that inhibited growth of the bacteria. The MBC was assessed by spreading 10 μL of culture collected from wells showing no visible growth on MH agar plates. […]

E. coli SA/2 (ESBL) = experiment: Antibacterial MIC/MBC (broth microdilution); type: cell-based, Escherichia coli; details: E. coli SA/2 (ESBL)
Excerpt: as §1, §2, §3

P. aeruginosa 33b (PDR) = experiment: Antibacterial MIC/MBC (broth microdilution); type: cell-based, Pseudomonas aeruginosa; details: P. aeruginosa 33b (PDR)
Excerpt: as §1, §2, §3

[2] = test system: Acinetobacter baumannii ATCC 19606; experiment: Antibacterial MIC/MBC (broth microdilution); type: cell-based; details: Acinetobacter baumannii ATCC 19606
Excerpt: as §1, §2, §3

[3] = test system: Campylobacter jejuni ATCC 33560; experiment: Antibacterial MIC/MBC (broth microdilution); type: cell-based; details: Campylobacter jejuni ATCC 33560
Excerpt: as §1, §2, §3

[4] = test system: Escherichia coli ATCC 25922; experiment: Antibacterial MIC/MBC (broth microdilution); type: cell-based; details: Escherichia coli ATCC 25922
Excerpt: as §1, §2, §3

[5] = test system: Klebsiella pneumoniae ATCC 13883; experiment: Antibacterial MIC/MBC (broth microdilution); type: cell-based; details: Klebsiella pneumoniae ATCC 13883
Excerpt: as §1, §2, §3

[6] = test system: Listonella anguilarum ATCC 1924; experiment: Antibacterial MIC/MBC (broth microdilution); type: cell-based; details: Listonella anguilarum ATCC 1924
Excerpt: as §1, §2, §3

[7] = test system: Pseudomonas aeruginosa ATCC 27853; experiment: Antibacterial MIC/MBC (broth microdilution); type: cell-based; details: Pseudomonas aeruginosa ATCC 27853
Excerpt: as §1, §2, §3

[8] = test system: Salmonella enterica serovar Typhimurium CECT 443; experiment: Antibacterial MIC/MBC (broth microdilution); type: cell-based
Excerpt: as §1, §2, §3

[9] = test system: Staphylococcus aureus ATCC 29213; experiment: Antibacterial MIC/MBC (broth microdilution); type: cell-based
Excerpt: as §1, §2, §3

[10] = test system: Yersinia ruckeri ATCC 29473; experiment: Antibacterial MIC/MBC (broth microdilution); type: cell-based
Excerpt: as §1, §2, §3

C. jejuni 4432 = experiment: Antibacterial MIC/MBC (broth microdilution); type: cell-based, Campylobacter jejuni
Excerpt: as §1, §2, §3

C. jejuni 4433 = experiment: Antibacterial MIC/MBC (broth microdilution); type: cell-based, Campylobacter jejuni
Excerpt: as §1, §2, §3

C. jejuni 4448 = experiment: Antibacterial MIC/MBC (broth microdilution); type: cell-based, Campylobacter jejuni
Excerpt: as §1, §2, §3

C. jejuni P5/4 = experiment: Antibacterial MIC/MBC (broth microdilution); type: cell-based, Campylobacter jejuni
Excerpt: as §1, §2, §3

[11] = test system: Tenacibaculum maritimum ATCC 43397; experiment: Antibacterial disk diffusion; type: cell-based; details: Tenacibaculum maritimum ATCC 43397, footnote *
Excerpt: as §1, §2, §3

S. aureus 66/1 (MRSA) = experiment: Antibacterial MIC/MBC (broth microdilution); type: cell-based, Staphylococcus aureus
Excerpt: as §1, §2, §3

E. faecalis B3/101 (VRE) = experiment: Antibacterial MIC/MBC (broth microdilution); type: cell-based, Enterococcus faecalis; details: E. faecalis B3/101 (VRE)
Excerpt: as §1, §2, §3

[12] = test system: Enterococcuss faecalis ATCC 29212; experiment: Antibacterial MIC/MBC (broth microdilution); type: cell-based, Enterococcus faecalis; details: Enterococcuss faecalis ATCC 29212
Excerpt: as §1, §2, §3

[13] = test system: Streptococcuss pyogenes ATCC 19615; experiment: Antibacterial MIC/MBC (broth microdilution); type: cell-based, Streptococcus pyogenes; details: Streptococcuss pyogenes ATCC 19615
Excerpt: as §1, §2, §3

E. coli ATCC 25922 [14] = experiment: Membrane integrity, propidium iodide influx assay (SYTO 9/PI); type: cell-based, Escherichia coli; details: 4 μg/mL; 0, 1, 18 h
Description: The influx of PI in E. coli ATCC 25922 treated with 2×MIC, MIC, and ½×MIC of compound 1 was evaluated using a commercial kit that includes fluorescent nucleic acid stains SYTO® 9 and PI. SYTO® 9 can enter cells with intact or damaged membranes, generally labeling both, whereas PI only penetrates cells with severe membrane lesions, causing a reduction in SYTO® 9 fluorescence when both dyes are present.
In these assays, COL and AMP were used as controls. COL is a polycationic antimicrobial peptide with a complex mode of action, that ultimately solubilizes the bacterial cell membrane. AMP is an aminopenicillin that inhibits cell wall synthesis by inhibiting penicillin-binding proteins. E. coli ATCC 25922 cells were treated with compound 1 and, at several time-points (0, 1, and 18 h), samples were taken, and SYTO® 9/PI ratio was determined ([FIG. 4]). The entrance of PI is reflected in a reduction of this ratio.
Briefly, E. coli ATCC 25922 colonies from overnight cultures in MHA were suspended in CAMHB to prepare an inoculum with a final concentration of approximately 5×10^5 CFU/mL. The tubes were incubated overnight at 36° C. in a water bath with shaking. Following this, the cell suspensions were centrifuged at 3500 rpm for 15 min, the supernatant was removed, the cells were carefully resuspended in fresh CAMHB and the suspension was adjusted to 0.5 McFarland. An aliquot of this suspension was then added to each tube of CAMHB alone (control) or CAMHB plus an appropriate amount of test compound. […] The tubes were incubated at 36 degrees C. in a water bath with shaking and, at pre-established time points (0, 1, and 18 h), […] aliquots were retrieved for further analysis. After the exposure time, cells were washed two times, resuspended in 0.85% NaCl, and 100 μL of each cell suspension was distributed in the wells of a microtiter plate, in triplicate. 100 μL of a mixture of 30 μM PI and 5 μM SYTO® 9 prepared in ultrapure water were added to each well, and the plates were incubated at room temperature, in the dark, for 15 min. The fluorescence intensity of the stained bacterial suspensions was determined using a microplate reader (Synergy HT, BioTek Instruments, Winooski, VT, USA) by two consecutive measurements with excitation wavelength 485 nm and emission wavelength 528 nm (SYTO® 9) or 590 nm (PI). Data were analyzed by subtracting background fluorescence from each sample, dividing the fluorescence intensity of SYTO® 9 by fluorescence intensity of PI, and the results are presented as a percentage of control. Three independent assays were performed in triplicate for each experimental condition.

E. coli ATCC 25922 [15] = experiment: Enzymatic/metabolic activity, MTT assay; type: cell-based, Escherichia coli; details: 4 μg/mL; 0, 1, 18 h
Description: To determine whether compound 1 could also affect enzymatic activity, 2-(4,5-dimethyl-2-thiazolyl)-3,5-diphenyl-2H-tetrazolium bromide (MTT) assay was performed. This assay can also be used as an indirect measure of cellular viability, as tetrazolium salts are reduced to purple formazan by metabolically active cells. E. coli ATCC 25922 cells were treated with compound 1 and COL and AMP were used as controls, as described above. Measurements were made at 0, 1, and 18 h.
Enzymatic activity was evaluated by the MTT assay, as previously described, with some modifications. Cell suspensions of E. coli ATCC 25922 were prepared as described above, as well as test conditions and controls. At each time point (0, 1, and 18 h), 500 μL aliquots were collected, centrifuged at 3500 rpm for 10 min, the supernatant was removed, and 300 μL of MTT solution (0.5 mg/mL in CAMHB, at 36 degrees C.) (Thiazolyl Blue Tetrazolium Bromide, Alfa Aesar, Ward Hill, MA, USA) were added. After a 30 min incubation at 36° C., the insoluble formazan product resulting from the conversion of MTT by metabolically active cells was solubilized with 300 μL of DMSO. 100 μL of each sample were transferred in duplicate to the wells of a microtiter plate and the extent of the reduction of MTT to formazan was quantified by measuring the absorbance at 570 nm (Thermo Scientific Multiskan® EX, Thermo Fisher Scientific, Waltham, MA, USA). Three independent assays were performed in duplicate, and results are expressed as a percentage of untreated control.

C[C@H](CCC(=O)NCCc1nc2ccccc2[nH]1)[C@H]1CC[C@H]2[C@@H]3CC[C@@H]4C[C@H](O)CC[C@]4(C)[C@H]3C[C@H](O)[C@]12C [Compound 7, (R)—N-(2-(1H-benzo[d]imidazol-2-yl)ethyl)-4-((3R,5R,8R,9S,10S,12S,13R,14S,17R)-3,12-dihydroxy-10,13-dimethylhexadecahydro-1H-cyclopenta[a]phenanthren-17-yl) pentanamide]
MBC [1]: >64 µg/mL
MIC [1]: >64 µg/mL
MBC (E. coli SA/2 (ESBL)): >64 µg/mL
MIC (E. coli SA/2 (ESBL)): >64 µg/mL
MBC (P. aeruginosa 33b (PDR)): >64 µg/mL
MIC (P. aeruginosa 33b (PDR)): >64 µg/mL
MBC [2]: >64 µg/mL
MIC [2]: >64 µg/mL
MBC [3]: >64 µg/mL
MIC [3]: >64 µg/mL
MBC [4]: >64 µg/mL
MIC [4]: >64 µg/mL
MBC [5]: >64 µg/mL
MIC [5]: >64 µg/mL
MBC [6]: >64 µg/mL
MIC [6]: >64 µg/mL
MBC [7]: >64 µg/mL
MIC [7]: >64 µg/mL
MBC [8]: >64 µg/mL
MIC [8]: >64 µg/mL
MBC [9]: >64 µg/mL
MIC [9]: 8 µg/mL (≈ 14.9 µM)
MBC [10]: >64 µg/mL
MIC [10]: >64 µg/mL
MBC (C. jejuni 4432): >64 µg/mL
MIC (C. jejuni 4432): >64 µg/mL
MBC (C. jejuni 4433): >64 µg/mL
MIC (C. jejuni 4433): >64 µg/mL
MBC (C. jejuni 4448): >64 µg/mL
MIC (C. jejuni 4448): >64 µg/mL
MBC (C. jejuni P5/4): >64 µg/mL
MIC (C. jejuni P5/4): >64 µg/mL
Inhibition zone diameter (disk diffusion) [11]: 9 mm
MBC (S. aureus 66/1 (MRSA)): >64 µg/mL
MIC (S. aureus 66/1 (MRSA)): 16 µg/mL (≈ 29.9 µM)
MBC (E. faecalis B3/101 (VRE)): >64 µg/mL
MIC (E. faecalis B3/101 (VRE)): >64 µg/mL
MBC [12]: >64 µg/mL
MIC [12]: >64 µg/mL
MBC [13]: >64 µg/mL
MIC [13]: >64 µg/mL

CC1(C)S[C@@H]2[C@H](NC(=O)[C@H](N)c3ccccc3)C(=O)N2[C@H]1C(=O)O [AMP]
MIC [4]: 4 µg/mL (≈ 11.4 µM)
reduction in SYTO 9/PI ratio vs untreated control (E. coli ATCC 25922 [14]): not
metabolic activity (MTT) vs untreated control (E. coli ATCC 25922 [15]): did not affect the metabolic activity
